Laboratory results from US7829714B2, “Method for measuring aromatase activity” (GE Healthcare Limited, priority 2003, dated 2010).
Where two headings read alike, the source gives them in different places.

Target: T1, CYP19 (aromatase) containing microsomes (Homo sapiens, UniProt P11511)
T1 sequence (P11511 1-503): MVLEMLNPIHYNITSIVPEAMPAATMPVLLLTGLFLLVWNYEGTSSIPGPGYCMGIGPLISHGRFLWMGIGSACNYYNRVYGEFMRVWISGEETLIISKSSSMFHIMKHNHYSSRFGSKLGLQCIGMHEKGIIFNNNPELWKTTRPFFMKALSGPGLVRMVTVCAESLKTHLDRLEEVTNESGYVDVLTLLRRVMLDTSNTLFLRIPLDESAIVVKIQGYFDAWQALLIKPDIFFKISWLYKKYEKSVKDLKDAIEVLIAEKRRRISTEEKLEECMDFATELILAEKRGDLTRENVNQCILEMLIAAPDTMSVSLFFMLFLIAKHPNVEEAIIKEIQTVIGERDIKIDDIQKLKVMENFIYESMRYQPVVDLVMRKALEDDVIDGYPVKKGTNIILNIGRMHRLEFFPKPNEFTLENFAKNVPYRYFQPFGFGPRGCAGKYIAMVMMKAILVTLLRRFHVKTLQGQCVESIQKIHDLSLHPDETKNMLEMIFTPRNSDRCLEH
Conditions: for change in intensity relative to the control: 20 μl of CYP19 aromatase preparation (FIG. 5); for decrease in intensity relative to the control reaction: 2 μM substrate, 1 mM NADPH
Description: NADPH was prepared to a final concentration of 1 mM in 100 mM disodium hydrogen phosphate buffer pH7.4.
100 μl of this reagent was dispensed in to replicate wells of a 96 well microtitre plate. To each well was dispensed 20 μl-30 μl of either the CYP19 (aromatase) containing microsomes or control microsomes (no CYP19). All microsomes were adjusted to the same protein concentration with assay buffer. The plates were incubated at 37° C. for 1 hour and then fluorescence intensity measurements were recorded on the Envision Plate Reader (Perkin Elmer, US), excitation 405 nm/emission BFP450 nm.

Structure (SMILES) | fluorescence intensity, aromatase microsomes compared to control microsome preparation | change in intensity relative to the control | decrease in intensity relative to the control reaction (300 of microsome preparation, 37° C. for 1 hour (FIG. 3)) | decrease in fluorescence (in the absence of additional co-factor (NADPH) (FIG. 4)) | decrease in fluorescence (in the presence of additional NADPH (FIG. 4)) | decrease in intensity relative to the control reaction (microsome volume of 200, 37° C. for 1 hour, excitation 405 nm/emission 450 nm (FIG. 3))
C[C@]12CCC(=O)C=C1CC[C@@H]1[C@@H]2CC[C@]2(C)C(C(=O)NCCNC(=O)CCCCCn3c4ccccc4c(=O)c4ccccc43)CC[C@@H]12 (stereo partly shown) [Formula XX, 3-oxo-N-(2-{[6-(9-oxoacridin-10(9H)-yl)hexanoyl]amino}ethyl)androst-4-ene-17-carboxamide] | greater decrease in fluorescence intensity | 17.5% | 24.2% | 16% | 24% | 17.5%
O=C(O)CCCCCn1c2ccccc2c(=O)c2ccccc21 [compound XVII, 6-(9-oxoacridin-10(9H)-yl)hexanoic acid, reference compound] |  | 5% |  |  |  | 
